Values after ≈ are worked out from the molar mass of the structure shown. Structures can show the parent of a compound that is named as a salt. Values belong to the compound of their own block, whether it stands above or below them.
What was measured:
[1] = Solubility of poorly water-soluble APIs in propylene carbonate; format: physicochemical; settings: organic solvent or mixture, thermodynamic from solid, solvent added in 10 μl steps to about 20 mg, mean of three samples
Method: For a preliminary analysis, 1-2 mg of each compound was weighted in an Eppendorf tube and 1 ml propylene carbonate was added. The mixture was mixed with a metal spatula for 10 min each. The solubility of compounds, which were fully dissolved in the preliminary tests where than further analyzed. About 20 mg of each compound were used and under stirring with a metal spatula propylene carbonate was added in 10 μl steps.

[2] = physchem; settings: organic solvent or mixture, thermodynamic from solid
Method: Therefore, 1 mg of each compound was weighted in an Eppendorf tube and 1 ml of solvent was added. The mixture was mixed with a metal spatula for 10 min each. […] About 20 mg of each compound were used and under stirring with a metal spatula the solvent was added in 10 μl steps.

[3] = Biphasic dissolution test (BiPHa+); format: in vitro ADME
Description: This approach was chosen to simulate the gastrointestinal properties to obtain in vivo predictive results.
The transition to the organic phase can be understood as absorption of active substances into the blood.
To simulate the gastrointestinal properties to obtain in vivo predictive results, the pH-profile, bile salt concentration and gastrointestinal passage time were adjusted in the aqueous phase to mimic human gut conditions. An organic phase of 1-decanol above the aqueous phase imitated the fraction absorbed from the gut. As a test model, the profile of a person without prior food intake was chosen. Therefore, FaSSIF-V2 medium, which represents the bile salts concentration of a fasted human was used. […] To generate an in-situ biorelevant aqueous medium for the fasted state, biorelevant surfactants, namely sodium-taurocholate (3 mM) and lecithin (0.2 mM), were added.
Prior to the start of the experiments, both phases, 1-decanol and the acidic aqueous phase, were saturated with each other. First, the respective formulation was added (Table 2) to 50 mL HCl (0.1 M), simulating the stomach. During the first 30 min the formulation disintegrated/dispersed in 50 ml of 0.1 M HCl. After 30 min FaSSIF-V2 concentrate (sodium-taurocholate and lecithin) was added simultaneously to the addition of citrate-phosphate buffer (tri-potassium phosphate and potassium citrate) resulting in a first pH-shift from pH 1 to pH 5.5, simulating the duodenum. Thereafter, 50 mL 1-decanol was added. […] The adjusted buffers were titrated by 0.1 M NaOH and 0.1 M HCl (pH 5.5-6.8). The whole dissolution took 4.5 hours.
For each compound, the biphasic dissolution test was performed in triplicate. In order to evaluate the liquisolid formulations in terms of their performance, each liquisolid formulation was compared to a respective commercially available formulation.
The market formulations (Originator) of the selected APIs were tested additionally to compare the performance against established marked products.

solubility [1]: 167 mg/mL
SMILES: CN(C)CCCN1c2ccccc2CCc2ccccc21 [Imipramine hydrochloride]

solubility [1]: 17.2 mg/mL (≈ 48.1 mM)
SMILES: COc1ccc2c(c1)c(CC(=O)O)c(C)n2C(=O)c1ccc(Cl)cc1 [Indomethacin]

solubility [1]: 267 mg/mL (≈ 699 mM) | Maximum Partitioned Drug in the Organic Phase ([3]; Market Formulation (Originator, Table 11)): 41% | Maximum Partitioned Drug in the Organic Phase ([3]; PC Silsol ® Formulation (propylene carbonate on mesoporous silica)): 54% | Maximum Partitioned Drug in the Organic Phase ([3]; PEG 400 Silsol ® Formulation): 46% | Maximum Partitioned Drug in the Organic Phase ([3]; TEG Silsol ® Formulation): 53% | result of propylene carbonate formulation compared to commercially available market formulation ([3]; same in vitro biphasic dissolution conditions, in words): even better results | solubility at 10 min ([2]; glycerol): < 1 mg/mL | solubility ([2]; polyethylene glycol 400 (PEG 400)): 230 mg/mL (≈ 603 mM) | solubility ([2]; propylene glycol (PG)): 60.3 mg/mL (≈ 158 mM) | solubility ([2]; tetraglycole (TEG)): 244 mg/mL (≈ 641 mM)
SMILES: Cc1ccc(-c2cc(C(F)(F)F)nn2-c2ccc(S(N)(=O)=O)cc2)cc1 [Celecoxib]

solubility [1]: 4.79 mg/mL (≈ 14.7 mM)
SMILES: CN1CCN(C2=Nc3cc(Cl)ccc3Nc3ccccc32)CC1 [Clozapine]

The remaining lines, values behind:

SMILES: CC(=O)Oc1ccc(C(c2ccc(OC(C)=O)cc2)c2ccccn2)cc1 [Bisacodyl]
solubility [1]: 91.5 mg/mL (≈ 253 mM)

SMILES: COC1=CC(=O)C[C@@H](C)[C@]12Oc1c(Cl)c(OC)cc(OC)c1C2=O [Griseofulvin]
solubility [1]: 16.8 mg/mL (≈ 47.7 mM)

SMILES: COCCOC(=O)C1=C(C)NC(C)=C(C(=O)OC(C)C)C1c1cccc([N+](=O)[O-])c1 (stereo not drawn) [Nimodipine]
solubility [1]: 144 mg/mL (≈ 345 mM) | solubility at 10 min [2]: < 1 mg/mL

SMILES: Cc1ccc(S(=O)(=O)NC(=O)NN2CC3CCCC3C2)cc1 (stereo not drawn) [Gliclazide]
solubility [1]: 32.3 mg/mL (≈ 99.8 mM)
